# Results as given in US10987319B2, “TFEB activator C1 ameliorates app and tau pathology and rescues cognitive deficits in neurodegenerative diseases” (Hong Kong Baptist University, priority 2018, dated 2021).
# Legend:
# Format in all cases: in vivo
# [1] = Pharmacokinetic study in mice, oral (brain and blood levels by LC/MS/MS); conditions: male, mouse, C57BL/6 mice, oral 10 mg/kg, brain
# 5×FAD mice = assay: Contextual fear conditioning; conditions: 50 mg/kg oral daily 4 months, P<0.05
# Protocol: Male 5×FAD mice were purchased from Jackson laboratories (Stock number 006554) and maintained at 23±2° C. temperature, 60±15% relative humidity with free access to food and water ad libitum. 5×FAD male mice were inbred with wild-type (WT, C57/BL6) female mice to produce heterozygous offspring. Offspring were genotyped to select 5×FAD (APP KM670/671NL (Swedish), APP I716V (Florida), APP V717I (London), PSEN1 M146L (A>C), PSEN1 L286V) gene mutations mice. Two months old WT and 5×FAD mice (male and female, n=10-14 per group) were treated daily with vehicle (1% sodium carbonyl methylcellulose [CMC-Na; Sigma-Aldrich, C5678]), curcumin analogue C1 (5 mg/kg, 10 mg/kg) or curcumin (50 mg/kg; Sigma-Aldrich, 08511) suspended in 1% CMC-Na by oral gavage for 4 months.
# Contextual fear conditioning (CFC) was used to evaluate the fear memory reconsolidation of 5×FAD mice after treatment. The experiment was conducted 30 min after the drug treatment in ANY maze fear conditioning system under licensed ANY maze tracking system connected to a Windows XP computer. A digital camera was installed on each chamber and signals were sent to the computer for analysis. The experiments were conducted in two sound proof chambers. All the experiments were conducted with continuous 40 units of white noise and 40 lux white light. During training, mice were allowed to explore the platform for 2.5 min and then received 3 repeated footshock cycles (30 s) at 30 s intervals, each started with a cue tone (28 s, 1500 Hz) and ended by a footshock ([…], 2 s). On the second day the mice were allowed to explore the platform for 3 min followed by a cue tone (30 s, 1500 Hz) without footshock, and the freezing time was recorded. Contextual fear memory formation and the subsequent remote memory stabilization were evaluated by scoring freezing index (the absence of all but respiratory movement).
# [2] = system: APP, APP CTFs, Aβ, LC3-II; assay: Western blotting of brain tissue, 5×FAD mice
# Protocol: 5×FAD male mice were inbred with wild-type (WT, C57/BL6) female mice to produce heterozygous offspring. Offspring were genotyped to select 5×FAD (APP KM670/671NL (Swedish), APP I716V (Florida), APP V717I (London), PSEN1 M146L (A>C), PSEN1 L286V) gene mutations mice.
# (§1) Brain tissues were lysed with RIPA buffer (TBS with 1% NP-40, 1% sodium deoxycholic acid, 0.1% SDS, and protease phosphatase inhibitor cocktails) and centrifuged at 15,000 RPM for 30 min. Supernatant is collected and the pellets were further lysed with 2% SDS in RIPA buffer. Protein concentration was estimated by BCA assay. […] Protein chemiluminescence signal was detected by using ECL kit and quantified using ImageJ software.
# 3×Tg mice [3] = assay: Open-field test; conditions: 3×Tg mice, 50 mg/kg oral 7 months
# Protocol: Homozygous 3×Tg mice (APP KM670/671NL (Swedish), MAPT P301L, PSEN1 M146V) were produced in Hong Kong Baptist University animal house and maintained at 23±2° C. temperature, 60±15% relative humidity with free access to food and water ad libitum. Seven months old WT (129/SvJ, n=6 for male mice; n=10 for female mice) and 3×Tg mice (n=6 for male mice; n=10 for female mice) were treated daily with vehicle (1% CMC-Na; Sigma-Aldrich, C5678]), curcumin analogue C1 (2.5 mg/kg, 5 mg/kg, 10 mg/kg) or curcumin (50 mg/kg; Sigma-Aldrich, 08511) suspended in 1% CMC-Na by oral gavage for 7 months. 3×Tg mice were treated with the indicated compounds for 7 months and then the open-field test was performed to evaluate the exploratory behavior in novel environment. The experiment was conducted 30 min after last dosing time. Mice placed in the center of an empty open field (25 cm×25 cm) were allowed to explore the environment for 5 min without any external disturbance. Ethnovision XT software was used to measure the patterns of movement, time spent in the center and margin, velocity, distance traveled as indicators of agility and exploration.
# 3×Tg mice [4] = assay: Morris-water maze; conditions: 50 mg/kg oral 7 months
# Protocol: Homozygous 3×Tg mice (APP KM670/671NL (Swedish), MAPT P301L, PSEN1 M146V) were produced in Hong Kong Baptist University animal house and maintained at 23±2° C. temperature, 60±15% relative humidity with free access to food and water ad libitum. Seven months old WT (129/SvJ, n=6 for male mice; n=10 for female mice) and 3×Tg mice (n=6 for male mice; n=10 for female mice) were treated daily with vehicle (1% CMC-Na; Sigma-Aldrich, C5678]), curcumin analogue C1 (2.5 mg/kg, 5 mg/kg, 10 mg/kg) or curcumin (50 mg/kg; Sigma-Aldrich, 08511) suspended in 1% CMC-Na by oral gavage for 7 months. 3×Tg mice were treated with the indicated compounds for 7 months and Morris-water maze (MWM) was used to evaluate the spatial learning memory. MWM is a circular water (21±1° C.) container with 1 meter diameter. Animals were pre-quarantined and acclimatized to the experimenting room at least 1 week before the start of the experiment. The experiment was started with one day visual platform trial. Each mouse underwent 4 visible platform trails (each trial 60 seconds) with different platform placement, positioned above the water level. Hidden platform training was conducted after mixing a non-toxic paint in the water. Mice were trained for 6 continuous days, each day composed of different session with 4 hidden platform trials (each trial 60 seconds). Each session was designed with randomized animal introduction pattern into the water maze with unchanged platform position. Each trial was conducted with 30 min inter-trial interval and provided with external cues. To assess the long term spatial memory retrieval a probe trial (60 seconds) was conducted 24 h after the last training session. During probe trial water maze was divided into 4 quadrants. The hidden platform in the target quadrant was removed after determining its location. Ethnovision XT software was used to observe and record the swimming pattern. During hidden platform training sessions, time spent to find the platform was taken as a parameter to evaluate memory acquisition. In probe trial percentage of time spent in the target quadrant compared to the other 3 quadrants was calculated.
# [5] = system: APP, CTFs, phosphorylated Tau, total Tau, TFEB, LC3-II; assay: Western blotting of hippocampus, female 3×Tg mice; conditions: 50 mg/kg oral 7 months
# Protocol: (§2) Homozygous 3×Tg mice (APP KM670/671NL (Swedish), MAPT P301L, PSEN1 M146V) were produced in Hong Kong Baptist University animal house and maintained at 23±2° C. temperature, 60±15% relative humidity with free access to food and water ad libitum.
# as §1
# Aβ plaques = assay: Immunohistochemistry of Aβ plaques (4G8 antibody), 3×Tg mice; conditions: 50 mg/kg oral 7 months
# Protocol: as §2
# Brain sections (30 μm) were cut on a microtome and stored at 4° C. in PBS+0.1% sodium azide. Sections were permeabilized for 10 min with cold PBS containing 0.5% Triton X-100 and blocked with 3% bovine serum albumin for 1 h at room temperature.
# [6] = 5×FAD mice, male and female, 50 mg/kg oral 4 months
structure (smiles),measurement,setting,value
"COc1cc(/C=C/C(=O)CC(=O)/C=C/c2ccc(O)c(OC)c2)ccc1O [curcumin, Curcumin, reference compound]",Tmax,[1],1 h
same,Cmax,[1]; read-out: maximum concentration (Cmax) in the brain,73.77 ± 0.24 ng/g
same,freezing index (memory reconsolidation) vs vehicle,5×FAD mice,significant memory reconsolidation
same,LC3-II levels in brain (autophagy enhancement),[2]; [6],increase in LC3-II levels
same,levels of A3 in brain,[2]; [6],significantly reduced
same,levels of APP CTFs in brain,[2]; [6],significantly reduced
same,Fl-APP levels in brain,"[2]; female 5×FAD mice, oral 4 months",reduced Fl-APP levels
same,improvement in the open field test,3×Tg mice [3],no significant improvement
same,"percentage of time spent in the target quadrant, probe trial, vs vehicle",3×Tg mice [4],significantly increased
same,CTFs,[5],no significant reduction
same,"levels of phosphorylated Tau (PHF1, AT8)",[5]; hippocampus,significantly decreased
same,Aβ load,Aβ plaques,no significant reduction
